Test system: Balb/c female mice
Test: Transepidermal water loss in pups of mothers receiving SCFA in drinking water during pregnancy (TEWLmeter method)
Assay type: in vivo
Conditions: 200 mM in drinking water of pregnant mothers from day 1 of pregnancy; TEWL at day 3 after birth; vs regular drinking water; FIG. 1
Description: • Breeding pairs were set up with 1 Balb/c male and 2 Balb/c female mice. • From day 1 of pregnancy, female mice received 200 mM sodium acetate or sodium propionate ad libitum in drinking water. These doses correspond to 0.05-0.1 and 0.05-0.08 g/mouse/day, respectively. Control female mice received regular drinking water. • Cages were monitored from day 18-24 for litters. Regular drinking water was recommenced in the mothers as soon as pups were born. 6-7 pups per group were included in the experiment. • Transepidermal water loss was measured at day 3 after birth (baseline TEWL) by the TEWLmeter method and given in g·h^−1·m^−2.

| SMILES | transepidermal water loss in offspring |
| --- | --- |
| CCC(=O)[O-].[Na+] [propionate, sodium propionate] | significantly decreased |
| CC(=O)[O-].[Na+] [acetate, sodium acetate] | significantly decreased |
